Data published in patent US9949979B2, “Use of inhibitors of the activity or function of PI3K” (NOVARTIS AG, priority 2011, dated 2018).

Target: PI3K delta (Homo sapiens, UniProt O00329)
Experiment: PI3K delta inhibition in Rat1-myr-HA-p110 delta cells (Akt Ser473 phosphorylation, AlphaScreen SureFire)
Type: cell-based
Design: myristylation signal (myr) (N); HA tag (N); expressed in transfected cells; host or cells: Rat1 cells, stably transfected
Details: read-out: Cell PI3Kδ/ IC50
Experimental: Untreated cells were used as low controls, cells stimulated in absence of compounds were used as high controls. […] Cell lysates were either used immediately of stored frozen (in sealed plates) at −20° C. until use. […] Addition of AlphaScreen® SureFire® reagents was done according to the manufacturer's protocol. First, 5 ul of reaction buffer plus activation buffer mix containing AlphaScreen® acceptor beads was added, the plate was sealed, and incubated on a plate shaker for 2 hours at room temperature. […] The difference between high and low controls was taken as 100% and compound effects were expressed as percent inhibition. IC50 values were determined from the dose response curves by graphical extrapolation.

Chain of PI3K delta (O00329 whole entry): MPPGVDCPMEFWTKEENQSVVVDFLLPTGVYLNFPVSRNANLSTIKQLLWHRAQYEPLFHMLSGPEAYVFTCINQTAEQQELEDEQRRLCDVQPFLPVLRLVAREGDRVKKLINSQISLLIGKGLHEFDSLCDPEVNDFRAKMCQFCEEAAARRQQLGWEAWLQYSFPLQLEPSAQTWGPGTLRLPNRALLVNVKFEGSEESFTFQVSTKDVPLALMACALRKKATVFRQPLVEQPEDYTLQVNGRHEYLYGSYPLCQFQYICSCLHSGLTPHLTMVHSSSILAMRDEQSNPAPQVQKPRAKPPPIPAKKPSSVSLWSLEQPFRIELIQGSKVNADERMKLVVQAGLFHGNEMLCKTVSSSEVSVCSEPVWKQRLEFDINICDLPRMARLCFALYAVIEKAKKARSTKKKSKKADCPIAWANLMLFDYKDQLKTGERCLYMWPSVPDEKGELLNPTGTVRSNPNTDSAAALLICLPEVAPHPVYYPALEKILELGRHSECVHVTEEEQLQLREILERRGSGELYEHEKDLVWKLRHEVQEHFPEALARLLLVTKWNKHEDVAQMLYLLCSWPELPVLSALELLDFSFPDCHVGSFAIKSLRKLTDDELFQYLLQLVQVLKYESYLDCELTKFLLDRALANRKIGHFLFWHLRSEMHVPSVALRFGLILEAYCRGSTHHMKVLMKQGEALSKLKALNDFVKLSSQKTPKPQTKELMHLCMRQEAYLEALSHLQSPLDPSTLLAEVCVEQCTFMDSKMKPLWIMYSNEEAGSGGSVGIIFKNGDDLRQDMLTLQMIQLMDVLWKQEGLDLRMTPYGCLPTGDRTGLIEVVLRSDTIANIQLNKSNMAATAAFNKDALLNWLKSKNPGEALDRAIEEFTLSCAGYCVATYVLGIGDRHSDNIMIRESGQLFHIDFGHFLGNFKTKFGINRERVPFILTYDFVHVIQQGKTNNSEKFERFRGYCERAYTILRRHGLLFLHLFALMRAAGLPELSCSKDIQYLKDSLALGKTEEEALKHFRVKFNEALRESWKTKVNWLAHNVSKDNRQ
Chain of PI3K delta (Q63787 whole entry partner): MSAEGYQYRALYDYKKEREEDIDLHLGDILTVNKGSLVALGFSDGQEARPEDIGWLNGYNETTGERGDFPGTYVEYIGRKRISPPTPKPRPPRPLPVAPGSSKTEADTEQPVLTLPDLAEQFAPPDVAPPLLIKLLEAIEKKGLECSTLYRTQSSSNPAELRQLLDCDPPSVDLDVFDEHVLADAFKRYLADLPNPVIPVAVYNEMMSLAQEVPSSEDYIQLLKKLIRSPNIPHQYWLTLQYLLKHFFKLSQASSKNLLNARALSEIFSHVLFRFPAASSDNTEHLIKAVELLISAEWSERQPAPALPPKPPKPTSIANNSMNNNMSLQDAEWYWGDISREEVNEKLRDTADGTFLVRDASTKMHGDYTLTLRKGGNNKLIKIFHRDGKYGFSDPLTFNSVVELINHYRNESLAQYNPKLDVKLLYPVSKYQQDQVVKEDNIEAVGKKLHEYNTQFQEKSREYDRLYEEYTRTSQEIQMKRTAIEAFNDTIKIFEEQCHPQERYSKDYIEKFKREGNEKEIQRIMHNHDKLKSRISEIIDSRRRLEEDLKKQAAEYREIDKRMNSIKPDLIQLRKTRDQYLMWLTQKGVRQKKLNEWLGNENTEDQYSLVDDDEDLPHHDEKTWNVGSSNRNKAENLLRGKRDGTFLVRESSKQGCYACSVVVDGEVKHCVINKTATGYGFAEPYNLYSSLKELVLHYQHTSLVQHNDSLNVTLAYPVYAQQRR

- IC50: 254 nM
Compound: COc1ncc(N2CCc3ncnc(O[C@H]4CCN(C(=O)c5cn(C)cn5)C4)c3C2)cc1C [Example 20, {(S)-3-[6-(6-Methoxy-5-methyl-pyridin-3-yl)-5,6,7,8-tetrahydro-pyrido[4,3-d]pyrimidin-4-yloxy]-pyrrolidin-1-yl}-(1-methyl-1H-imidazol-4-yl)-methanone]
